Laboratory results reported in patent publication US11541068B2, “HMO compositions and methods for reducing autism spectrum disorder symptoms” (Glycom A/S, priority 2017, dated 2023).

Legend:
clostridia = details: children with regressive autism; 6-week oral course; cited from earlier work
faecal microbiota = experiment: M-SHIME (M-TripleSHIME) in vitro gastrointestinal model: microbiota and bacterial metabolites; type: cell-based, human (healthy adult); details: proximal (PC) and distal (DC) colon reactor; means of three weekly samples
Text: The impact of the HMOs on microbiota and bacterial metabolites was investigated in the M-SHIME® (M-TripleSHIME®) in vitro gastrointestinal model (Prodigest). The typical reactor setup of the M-TripleSHIME® consisted of a succession of four reactors simulating the different parts of the human gastrointestinal tract. The first two reactors were of the fill-and-draw principle to simulate different steps in food uptake and digestion, with peristaltic pumps adding a defined amount of SHIME feed (140 mL 3×/day) and pancreatic and bile liquid (60 ml 3×/day), respectively, to the stomach and small intestine compartment and emptying the respective reactors after specified intervals. The last two compartments were continuously stirred reactors with constant volume and pH control. […]
The M-TripleSHIME® was run in four stages: • 1. […] The baseline microbial community composition and activity in the different reactors was determined by analysis of samples and was used as a reference. • 3. […]
Sample of the liquids in each reactor were collected regularly (three times in a week, on day 1, day 3 and day 5) and were analysed for microbial metabolites and the composition of the resident microbial community. In particular, the bifidobacteria composition was analysed using ITS profiling.

For `CN[C@H](CC(C)C)C(=O)N[C@H]1C(=O)N[C@@H](CC(N)=O)C(=O)N[C@H]2C(=O)N[C@H]3C(=O)N[C@H](C(=O)N[C@H](C(=O)O)c4cc(O)cc(O)c4-c4cc3ccc4O)[C@H](O)c3ccc(c(Cl)c3)Oc3cc2cc(c3O[C@@H]2O[C@H](CO)[C@@H](O)[C@H](O)[C@H]2O[C@H]2C[C@](C)(N)[C@H](O)[C@H](C)O2)Oc2ccc(cc2Cl)[C@H]1O` [vancomycin], the “children with significant improvement in neurobehavioral symptoms” value (clostridia) is listed as “eight of the ten children” and the gastrointestinal symptoms (clostridia) is listed as “improvement”.

In the case of `CC(=O)N[C@H]1[C@H](O[C@H]2[C@@H](O)[C@@H](CO)O[C@@H](O[C@H]3[C@H](O)[C@@H](O)C(O)O[C@@H]3CO)[C@@H]2O)O[C@H](CO)[C@@H](O[C@@H]2O[C@H](CO)[C@H](O)[C@H](O)[C@H]2O)[C@@H]1O` (mixture of isomers) [LNnT, lacto-N-neotetraose], the “effect on branched SCFA and ammonia production, compared with 2′-FL (FIG. 1)” value (faecal microbiota) is reported as “similar”.
